Test results from patent publication US20250313572A1, “MACROCYCLIC MCL-1 INHIBITORS AND METHODS OF USE” (AbbVie Inc., priority 2017, published 2025).
pKi: −log10 of the molar value. Read-outs that look alike come from different tables or passages of the source.

How the values were obtained:
GST-MCL-1 = GST-MCL-1 (Homo sapiens, UniProt Q07820); test: TR-FRET MCL-1 binding assay (competition with probe F-Bak); settings: for Ki: MCL-1 Binding Ki (nM, 10% HS), in the presence of 10% HS (human serum); for pKi: without HS, read-out: MCL-1 Binding Ki
Method in brief: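 Test compounds, 11 three-fold dilutions from 25 μM final, incubated 2 hours at room temperature with GST-MCL-1, F-Bak probe and Tb-anti-GST antibody. TR-FRET read at 340/35 nm excitation with 520/525 and 495/510 nm emission. Run without human serum and with 10% HS.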

[1] = test system: AMO-1 human multiple myeloma tumor cell line; test: AMO-1 cell viability assay (CellTiter-Glo, 24 hours); assay type: cell-based
Experimental: Each concentration was tested in duplicate at least 3 independent times. A luminescent signal proportional to the number of viable cells following 24 hours of compound treatment was determined using the CellTiter-Glo® Luminescent Cell Viability Assay according to the manufacturer's recommendations (Promega Corp., Madison, WI). The plates were read in a Perkin Elmer Envision using a Luminescence protocol. To generate dose response curves the data is normalized to percent viability by setting the averages of the staurosporine (10 μM) and DMSO only control wells to 0% and 100% viability respectively.

[2] = test system: NCI-H929 human multiple myeloma tumor cell line; test: NCI-H929 cell viability assay (CellTiter-Glo, 24 hours); assay type: cell-based
[3] = Homo sapiens, AMO1, 24 h, read-out: AMO-1 Viability IC50 (μM, 10% FBS), 10% FBS, 24 hours of compound treatment
[4] = Homo sapiens, NCI-H929, 24 h, read-out: H929 Viability IC50 (μM, 10% FBS), 10% FBS, 24 hours of compound treatment

Sequence of GST-MCL-1 (Q07820 whole entry): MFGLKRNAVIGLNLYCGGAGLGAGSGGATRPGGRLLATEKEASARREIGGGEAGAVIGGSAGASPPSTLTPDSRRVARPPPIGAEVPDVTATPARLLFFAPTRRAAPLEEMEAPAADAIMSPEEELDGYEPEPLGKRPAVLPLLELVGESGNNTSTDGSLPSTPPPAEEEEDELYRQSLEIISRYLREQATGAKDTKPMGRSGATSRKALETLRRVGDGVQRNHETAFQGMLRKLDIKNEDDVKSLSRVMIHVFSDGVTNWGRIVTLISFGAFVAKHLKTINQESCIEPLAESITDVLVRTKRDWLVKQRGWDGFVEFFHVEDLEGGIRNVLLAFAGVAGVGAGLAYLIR

Compound	Ki (GST-MCL-1)	pKi (GST-MCL-1)	IC50 [1, 3]	IC50 [2, 4]	IC50 ([1]; read-out: AMO-1 Viability IC50 (μM, 10% FBS), 10% FBS, 24 hours of compound treatment)	IC50 ([2]; read-out: H929 Viability IC50 (μM, 10% FBS), 10% FBS, 24 hours of compound treatment)
Cc1c2ccc(c1Cl)O[C@H](CN1CCN(C)CC1)COc1ccc(OCc3ccnc(-c4ccccc4C(=O)O)n3)c(c1)C[C@H](C(=O)O)Oc1ncnc3sc(-c4ccc(F)cc4)c-2c13 (atropisomer, axis not shown) [Example 19, (7R,16R)-10-{[2-(2-carboxyphenyl)pyrimidin-4-yl]methoxy}-19-chloro-1-(4-fluorophenyl)-20-methyl-16-[(4-methylpiperazin-1-yl)methyl]-7,8,15,16-tetrahydro-18,21-etheno-13,9-(metheno)-6,14,17-trioxa-2-thia-3,5-diazacyclononadeca[1,2,3-cd]indene-7-carboxylic Acid]	0.069 nM	11.22	96300 pM	365000 pM		
COCCOCCOCCOc1cccc(-c2nccc(COc3ccc4cc3C[C@H](C(=O)O)Oc3ncnc5sc(-c6ccc(F)cc6)c(c35)-c3c(C)c(Cl)c(c(Cl)c3C)O[C@H](CN3CCN(C)CC3)CO4)n2)c1 [Example 104, (7R,16R)-19,23-dichloro-1-(4-fluorophenyl)-10-{[2-(3-{2-[2-(2-methoxyethoxy)ethoxy]ethoxy}phenyl)pyrimidin-4-yl]methoxy}-20,22-dimethyl-16-[(4-methylpiperazin-1-yl)methyl]-7,8,15,16-tetrahydro-18,21-etheno-13,9-(metheno)-6,14,17-trioxa-2-thia-3,5-diazacyclononadeca[1,2,3-cd]indene-7-carboxylic Acid]	0.089 nM	11.05	48.8 pM	55.7 pM		
COCCOCCOCCOCC1(C)CC=C(c2nccc(COc3ccc4cc3C[C@H](C(=O)O)Oc3ncnc5sc(-c6ccc(F)cc6)c(c35)-c3c(C)c(Cl)c(c(Cl)c3C)O[C@H](CN3CCN(C)CC3)CO4)n2)CC1 (single isomer, unassigned) [Example 119, (7R,16R)-19,23-dichloro-1-(4-fluorophenyl)-20,22-dimethyl-16-[(4-methylpiperazin-1-yl)methyl]-10-({2-[(4S*)-4-methyl-4-(2,5,8,11-tetraoxadodecan-1-yl)cyclohex-1-en-1-yl]pyrimidin-4-yl}methoxy)-7,8,15,16-tetrahydro-18,21-etheno-13,9-(metheno)-6,14,17-trioxa-2-thia-3,5-diazacyclononadeca[1,2,3-cd]indene-7-carboxylic Acid]	0.16 nM	11.40			181 pM	333 pM
Cc1c2ccc(c1Cl)O[C@H](CN1CCN(C)CC1)COc1ccc(OCc3ccnc(-c4ccccc4OCC(=O)O)n3)c(c1)C[C@H](C(=O)O)Oc1ncnc3sc(-c4ccc(F)cc4)c-2c13 (atropisomer, axis not shown) [Example 24, (7R,16R,21S)-10-({2-[2-(carboxymethoxy)phenyl]pyrimidin-4-yl}methoxy)-19-chloro-1-(4-fluorophenyl)-20-methyl-16-[(4-methylpiperazin-1-yl)methyl]-7,8,15,16-tetrahydro-18,21-etheno-13,9-(metheno)-6,14,17-trioxa-2-thia-3,5-diazacyclononadeca[1,2,3-cd]indene-7-carboxylic Acid]	0.098 nM	10.82	38500 pM	157000 pM		
Cc1c(Cl)c2c(Cl)c(C)c1-c1c(-c3ccc(F)cc3)sc3ncnc(c13)O[C@@H](C(=O)O)Cc1cc(ccc1OCc1ccnc(C3(COCCOCCOC[C@H]4COCCO4)CCC3)n1)OC[C@@H](CN1CCN(C)CC1)O2 [Example 72, (7R,16R)-19,23-dichloro-10-{[2-(1-{[2-(2-{[(2R)-1,4-dioxan-2-yl]methoxy}ethoxy)ethoxy]methyl}cyclobutyl)pyrimidin-4-yl]methoxy}-1-(4-fluorophenyl)-20,22-dimethyl-16-[(4-methylpiperazin-1-yl)methyl]-7,8,15,16-tetrahydro-18,21-etheno-13,9-(metheno)-6,14,17-trioxa-2-thia-3,5-diazacyclononadeca[1,2,3-cd]indene-7-carboxylic Acid]	0.184 nM	10.19	331 pM	743 pM		
COCCOCCO[C@]1(c2nccc(COc3ccc4cc3C[C@H](C(=O)O)Oc3ncnc5sc(-c6ccc(F)cc6)c(c35)-c3c(C)c(Cl)c(c(Cl)c3C)O[C@H](CN3CCN(C)CC3)CO4)n2)CC[C@H](OCC2COCCO2)CC1 (stereo partly drawn) [Example 122, (7R,16R)-19,23-dichloro-10-[(2-{(1s,4s)-4-[(1,4-dioxan-2-yl)methoxy]-1-[2-(2-methoxyethoxy)ethoxy]cyclohexyl}pyrimidin-4-yl)methoxy]-1-(4-fluorophenyl)-20,22-dimethyl-16-[(4-methylpiperazin-1-yl)methyl]-7,8,15,16-tetrahydro-18,21-etheno-9,13-(metheno)-6,14,17-trioxa-2-thia-3,5-diazacyclononadeca[1,2,3-cd]indene-7-carboxylic Acid]	0.698 nM	10.62	1070 pM	2770 pM		
COCCOCCOCCOc1ccc(-c2nccc(COc3ccc4cc3C[C@H](C(=O)O)Oc3ncnc5sc(C6CCCCC6)c(c35)-c3c(C)c(Cl)c(c(Cl)c3C)O[C@H](CN3CCN(C)CC3)CO4)n2)cc1 [Example 90, (7R,16R)-19,23-dichloro-1-cyclohexyl-10-{[2-(4-{2-[2-(2-methoxyethoxy)ethoxy]ethoxy}phenyl)pyrimidin-4-yl]methoxy}-20,22-dimethyl-16-[(4-methylpiperazin-1-yl)methyl]-7,8,15,16-tetrahydro-18,21-etheno-13,9-(metheno)-6,14,17-trioxa-2-thia-3,5-diazacyclononadeca[1,2,3-cd]indene-7-carboxylic Acid]	3.41 nM	10.36	183 pM	787 pM		
COCCOCCOCCOCCOCCOC1(c2nccc(COc3ccc4cc3C[C@H](C(=O)O)Oc3ncnc5sc(-c6ccc(F)cc6)c(c35)-c3c(C)c(Cl)c(c(Cl)c3C)O[C@H](CN3CCN(C)CC3)CO4)n2)CCC1 [Example 63, (7R,16R)-19,23-dichloro-1-(4-fluorophenyl)-20,22-dimethyl-16-[(4-methylpiperazin-1-yl)methyl]-10-[(2-{1-[(2,5,8,11,14-pentaoxahexadecan-16-yl)oxy]cyclobutyl}pyrimidin-4-yl)methoxy]-7,8,15,16-tetrahydro-18,21-etheno-9,13-(metheno)-6,14,17-trioxa-2-thia-3,5-diazacyclononadeca[1,2,3-cd]indene-7-carboxylic Acid]	0.148 nM	10.41	2050 pM	3200 pM		
COCCOCCOCCOc1ccc(COc2ccc3cc2C[C@H](C(=O)O)Oc2ncnc4sc(-c5ccc(F)cc5)c(c24)-c2c(C)c(Cl)c(c(Cl)c2C)O[C@H](CN2CCN(C)CC2)CO3)nc1 [Example 162, (7R,16R)-19,23-dichloro-1-(4-fluorophenyl)-10-[(5-{2-[2-(2-methoxyethoxy)ethoxy]ethoxy}pyridin-2-yl)methoxy]-20,22-dimethyl-16-[(4-methylpiperazin-1-yl)methyl]-7,8,15,16-tetrahydro-18,21-etheno-13,9-(metheno)-6,14,17-trioxa-2-thia-3,5-diazacyclononadeca[1,2,3-cd]indene-7-carboxylic Acid]	0.934 nM	9.80	12000 pM	14300 pM		
COCCOCCOCCOCCN(CCOCCOCCOCCOC)c1nccc(COc2ccc3cc2C[C@H](C(=O)O)Oc2ncnc4sc(-c5ccc(F)cc5)c(c24)-c2c(C)c(Cl)c(c(Cl)c2C)O[C@H](CN2CCN(C)CC2)CO3)n1 [Example 109, (7R,16R)-10-({2-[bis(2,5,8,11-tetraoxatridecan-13-yl)amino]pyrimidin-4-yl}methoxy)-19,23-dichloro-1-(4-fluorophenyl)-20,22-dimethyl-16-[(4-methylpiperazin-1-yl)methyl]-7,8,15,16-tetrahydro-18,21-etheno-13,9-(metheno)-6,14,17-trioxa-2-thia-3,5-diazacyclononadeca[1,2,3-cd]indene-7-carboxylic Acid]	2.43 nM	9.98	16600 pM	12800 pM		
COCCOCCOCCOc1cncc(COc2ccc3cc2C[C@H](C(=O)O)Oc2ncnc4sc(-c5ccc(F)cc5)c(c24)-c2c(C)c(Cl)c(c(Cl)c2C)O[C@H](CN2CCN(C)CC2)CO3)n1 [Example 176, (7R,16R)-19,23-dichloro-1-(4-fluorophenyl)-10-[(6-{2-[2-(2-methoxyethoxy)ethoxy]ethoxy}pyrazin-2-yl)methoxy]-20,22-dimethyl-16-[(4-methylpiperazin-1-yl)methyl]-7,8,15,16-tetrahydro-18,21-etheno-13,9-(metheno)-6,14,17-trioxa-2-thia-3,5-diazacyclononadeca[1,2,3-cd]indene-7-carboxylic Acid]	0.868 nM	9.82	3860 pM	7300 pM		
Cc1c(Cl)c2c(Cl)c(C)c1-c1c(-c3ccc(F)cc3)sc3ncnc(c13)O[C@@H](C(=O)O)Cc1cc(ccc1OCc1ccnc(-c3cccc(CCN4CCOCC4)c3)n1)OC[C@@H](CN1CCN(C)CC1)O2 [Example 143, (7R,16R)-19,23-dichloro-1-(4-fluorophenyl)-20,22-dimethyl-16-[(4-methylpiperazin-1-yl)methyl]-10-[(2-{3-[2-(morpholin-4-yl)ethyl]phenyl}pyrimidin-4-yl)methoxy]-7,8,15,16-tetrahydro-18,21-etheno-13,9-(metheno)-6,14,17-trioxa-2-thia-3,5-diazacyclononadeca[1,2,3-cd]indene-7-carboxylic Acid]	0.175 nM	10.64	216 pM	203 pM		
